The record followed here is paper PMC8110907, “Arabidopsis Carboxylesterase 20 Binds Strigolactone and Increases Branches and Tillers When Ectopically Expressed in Arabidopsis and Maize” (Frontiers in Plant Science, 2021).

The target of data set [1] is T1, AtCXE20 (carboxylesterase 20) (Arabidopsis thaliana, UniProt Q9LVB8).
T1 construct: gene CXE20; recombinant AtCXE20 with 20-amino acid N-terminal peptide fusion including a 6-histidine tag, expressed in E. coli
T1 sequence (Q9LVB8 1-327): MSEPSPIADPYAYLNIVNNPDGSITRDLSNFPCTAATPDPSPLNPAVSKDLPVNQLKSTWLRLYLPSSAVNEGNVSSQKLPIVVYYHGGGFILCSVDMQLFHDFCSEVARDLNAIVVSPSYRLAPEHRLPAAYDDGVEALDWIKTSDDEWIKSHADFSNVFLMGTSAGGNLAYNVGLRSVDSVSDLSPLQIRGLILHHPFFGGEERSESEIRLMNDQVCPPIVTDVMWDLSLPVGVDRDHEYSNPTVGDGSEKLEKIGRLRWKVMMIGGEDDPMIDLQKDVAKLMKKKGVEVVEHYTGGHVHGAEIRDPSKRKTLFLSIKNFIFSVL
The data set is described as follows: esterase assay with p-nitrophenyl acetate, Michaelis-Menten kinetics. The data set is classed as biochemical.

In data set [2] the target is T1, AtCXE20 (carboxylesterase 20). The data set is described as follows: esterase inhibition at […] (p-nitrophenyl acetate substrate); also decreased intrinsic fluorescence at […]. The data set is classed as biochemical.
Substrate in the data set “purified protein”: CC(=O)Oc1ccc([N+](=O)[O-])cc1
The data set is described as follows: purified protein. The data set is classed as biochemical, Arabidopsis thaliana. As to conditions: catalytic triad S166, H302, D272 (homology model).

The term Ki denotes the equilibrium dissociation constant of an inhibitor or competing ligand from its target. In data set [1], `CC1=C[C@H](O/C=C2/C(=O)O[C@@H]3C4=C(CCCC4(C)C)C[C@H]23)OC1=O` [5-DS, 5-deoxystrigol] registered a Ki of 5 µM.
In the case of `CC1=CC(O/C=C2/C(=O)OC3c4ccccc4CC23)OC1=O` (racemic) [GR24, rac-GR24], in data set [2], the “esterase inhibition at 20 μM (p-nitrophenyl acetate substrate); also decreased i” value is “substantial inhibition was observed with the synthetic SL racemic mixture GR24”.

B1: AtCXE20 (carboxylesterase 20) (Arabidopsis thaliana) (protein)
chain: T1 sequence (Q9LVB8 1-327)
notes: recombinant AtCXE20 with 20-amino acid N-terminal peptide fusion including a 6-histidine tag, expressed in E. coli
One may read the Km as the concentration of substrate that gives half-maximal velocity. In the case of B1, in “purified protein”, the Michaelis constant (Km) worked out at 251 ± 26 µM.
